# System: Tacaribe virus (TRVL 11573)
# Test: microbe, parasite or virus in culture
# Type: cell-based
# Settings: Mammarenavirus tacaribeense, Vero, read-out: Tacaribe EC50
row,SMILES,EC50 [nM]
1,"CC(NC(=O)NNS(=O)(=O)c1cc(F)ccc1F)(C(F)(F)F)C(F)(F)F [Example 42, N-2-(1,1,1,3,3,3-Hexafluoro-2-methylpropyl)-2-[(2,5-difluorophenyl)sulfonyl]hydrazine-1-carboxamide]",1000 to 5000
2,"Cc1ccc(S(=O)(=O)N(C)NC(=O)NC(C)(C(F)(F)F)C(F)(F)F)cc1 [Example 43, N-2-(1,1,1,3,3,3-Hexafluoro-2-methylpropyl)-2-[(4-methylphenyl)sulfonyl]-2-methylhydrazine-1-carboxamide]",1000 to 5000
3,"CC(NC(=O)NNS(=O)(=O)c1c(Cl)cccc1Cl)(C(F)(F)F)C(F)(F)F [Example 44, N-2-(1,1,1,3,3,3-Hexafluoro-2-methylpropyl)-2-[(2,6-dichlorophenyl)sulfonyl]hydrazine-1-carboxamide]",1000 to 5000
4,"CC(NC(=O)NNS(=O)(=O)c1c(C(F)(F)F)cccc1C(F)(F)F)(C(F)(F)F)C(F)(F)F [Example 45, N-2-(1,1,1,3,3,3-Hexafluoro-2-methylpropyl)-2-[(2,6-ditrifluoromethylphenyl)sulfonyl] hydrazine-1-carboxamide]",1000 to 5000
5,"Cc1ccc(S(=O)(=O)NNC(=O)N(C)C(C)(C(F)(F)F)C(F)(F)F)cc1 [Example 46, N-2-(1,1,1,3,3,3-Hexafluoro-2-methylpropyl)-2-[(4-methylphenyl)sulfonyl]hydrazine-1-methylcarboxamide]",> 5000
6,"Cc1noc(C)c1S(=O)(=O)NNC(=O)NC(C)(C(F)(F)F)C(F)(F)F [Example 47, N-2-(1,1,1,3,3,3-Hexafluoro-2-methylpropyl)-2-[(3,5-dimethylisoxazol-5-yl)sulfonyl]hydrazine-1-carboxamide]",> 5000
7,"CC(NC(=O)NNS(=O)(=O)c1ccc([N+](=O)[O-])cc1)(C(F)(F)F)C(F)(F)F [Example 48, N-2-(1,1,1,3,3,3-Hexafluoro-2-methylpropyl)-2-[(4-nitrophenyl)sulfonyl]hydrazine-1-carboxamide]",> 5000
8,"Cn1cnc(S(=O)(=O)NNC(=O)NC(C)(C(F)(F)F)C(F)(F)F)c1 [Example 49, N-2-(1,1,1,3,3,3-Hexafluoro-2-methylpropyl)-2-[(1-methylimidazol-4-yl)sulfonyl]hydrazine-1-carboxamide]",> 5000
9,"CC(NC(=O)NNS(C)(=O)=O)(C(F)(F)F)C(F)(F)F [Example 50, N-2-(1,1,1,3,3,3-Hexafluoro-2-methylpropyl)-2-[methylsulfonyl]hydrazine-1-carboxamide]",> 5000
10,"CC(NC(=O)N1CCN(c2ccccc2)CC1)(C(F)(F)F)C(F)(F)F [Example 51, 4-Phenylpiperazine-1-(2,2,2-trifluoro-1-methyl-1-trifluoromethylethyl)-carboxamide]",< 500
11,"CC(NC(=O)N1CCOCC1)(C(F)(F)F)C(F)(F)F [Example 52, 4-Morpholino-1-(2,2,2-trifluoro-1-methyl-1-trifluoromethylethyl)-carboxamide]",< 500
12,"CC(=O)c1ccccc1NC(=O)NC(C)(C(F)(F)F)C(F)(F)F [Example 53, 1-(2-Acetylphenyl)-3-(2,2,2-trifluoro-1-methyl-1-trifluoromethylethyl)-urea]",500 to 1000
13,"CC(NC(=O)N1CCCCC1)(C(F)(F)F)C(F)(F)F [Example 54, 1-Piperidino-1-(2,2,2-trifluoro-1-methyl-1-trifluoromethylethyl)-carboxamide]",500 to 1000
14,"COc1cc(NC(=O)NC(C)(C(F)(F)F)C(F)(F)F)cc(OC)c1OC [Example 55, 1-(2,2,2-trifluoro-1-methyl-1-trifluoromethylethyl)-3-(3,4,5-trimethoxyphenyl)-urea]",500 to 1000
15,"CC(NC(=O)Nc1ccc(C(F)(F)F)cc1)(C(F)(F)F)C(F)(F)F [Example 56, 1-(4-Trifluoromethylphenyl)-3-(2,2,2-trifluoro-1-methyl-1-trifluoromethylethyl)-urea]",500 to 1000
16,"CN1CCN(C(=O)NC(C)(C(F)(F)F)C(F)(F)F)CC1 [Example 57, 4-Methylpiperazine-1-(2,2,2 trifluoro-1-methyl-1-trifluoromethylethyl)-carboxamide]",1000 to 5000
17,"CC(NC(=O)Nc1cccc2ccccc12)(C(F)(F)F)C(F)(F)F [Example 58, 1-Naphthalen-1-yl-3-(2,2,2-trifluoro-1-methyl-1-trifluoromethylethyl)-urea]",1000 to 5000
18,"CC(NC(=O)N1CCC(c2ccccc2)CC1)(C(F)(F)F)C(F)(F)F [Example 60, 4-Phenylpiperidin-1-yl-1-(2,2,2-trifluoro-1-methyl-1-trifluoromethylethyl)-carboxamide]",1000 to 5000
19,CC(NC(=O)Nc1ccccc1-c1ccccc1)(C(F)(F)F)C(F)(F)F [Example 61],1000 to 5000
20,"CC(NC(=O)Nc1c(F)cccc1F)(C(F)(F)F)C(F)(F)F [Example 62, 1-(2,6-Difluorophenyl)-3-(2,2,2-trifluoro-1-methyl-1-trifluoromethylethyl)-urea]",1000 to 5000
21,"CC(NC(=O)Nc1ccccc1C(N)=O)(C(F)(F)F)C(F)(F)F [Example 63, 2-[3-(1,1-Bis-trifluoromethylethyl)-ureido]benzamide]",1000 to 5000
22,"CC(NC(=O)Nc1c(F)cccc1Cl)(C(F)(F)F)C(F)(F)F [Example 64, 1-(2-Chloro-6-fluorophenyl)-3-(2,2,2-trifluoro-1-methyl-1-trifluoromethylethyl)-urea]",1000 to 5000
23,"CC(NC(=O)Nc1cccc(C(F)(F)F)c1)(C(F)(F)F)C(F)(F)F [Example 65, 1-(3-Trifluoromethylphenyl)-3-(2,2,2-trifluoro-1-methyl-1-trifluoromethylethyl)-urea]",1000 to 5000
24,"CC(NC(=O)Nc1ccccc1S(N)(=O)=O)(C(F)(F)F)C(F)(F)F [Example 66, 2-[3-(1,1-Bis-trifluoromethylethyl)-ureido]benzenesulfonamide]",1000 to 5000
25,"CC(NC(=O)Nc1cccc2c1OC(F)(F)C(F)(F)O2)(C(F)(F)F)C(F)(F)F [Example 67, 1-(2,2,3,3-Tetrafluoro-2,3-dihydrobenzo[1,4]dioxin-5-yl)-3-(2,2,2-trifluoro-1-methyl-1-trifluoromethylethyl)-urea]",1000 to 5000
26,"CC(NC(=O)Nc1cccc(OC(F)(F)F)c1)(C(F)(F)F)C(F)(F)F [Example 68, 1-(3-Trifluoromethoxyphenyl)-3-(2,2,2-trifluoro-1-methyl-1-trifluoromethylethyl)-urea]",1000 to 5000
27,"CC(NC(=O)Nc1ccc(OC(F)(F)F)cc1)(C(F)(F)F)C(F)(F)F [Example 69, 1-(4-Trifluoromethoxyphenyl)-3-(2,2,2-trifluoro-1-methyl-1-trifluoromethylethyl)-urea]",1000 to 5000
28,"CC1CCN(C(=O)NC(C)(C(F)(F)F)C(F)(F)F)CC1 [Example 70, 4-Methyl-1-piperidine-1-(2,2,2-trifluoro-1-methyl-1-trifluoromethylethyl)-carboxamide]",1000 to 5000
29,"CC(NC(=O)Nc1ccc2ccccc2c1)(C(F)(F)F)C(F)(F)F [Example 71, 1-Naphthalen-2-yl-3-(2,2,2-trifluoro-1-methyl-1-trifluoromethylethyl)-urea]",1000 to 5000
30,"CC(NC(=O)Nc1ccccc1F)(C(F)(F)F)C(F)(F)F [Example 72, 1-(2-fluorophenyl)-3-(2,2,2-trifluoro-1-methyl-1-trifluoromethylethyl)-urea]",1000 to 5000

# Source: US8658697B2 (priority 2004, dated 2014)
